Legend:
[1] = tested on: C57BL/6J mice; assay: Tolerance induction to T-dependent antigen HEL in mice (anti-HEL titers by ELISA); assay type: in vivo, mouse; conditions: for antibody suppression with varying amounts of ligand on HEL STALs: end of 44-day experiment, two challenges with immunogenic liposomes on days 15 and 30
Procedure: Whole blood (50 μL) was collected from mice via a retro-orbital bleed to obtain the serum after centrifugation (17,000 g, 1 min). Serum was aliquoted and stored at −20° C. Liposomes were delivered via the lateral tail vein in a volume of 200 μL. For studies involving a challenge with soluble (non-liposomal) antigen, mice were injected with 200 μg of HEL dissolved in HBSS and delivered intraperitoneally.
Maxisorp plates were coated (0/N, 4° C.) with the relevant protein (50 μL/well, 10 μg/mL) in PBS. NP4-7-BSA in PBS (Biosearch Technologies) was used to look for anti-NP antibodies. The following day, plates were washed twice in TBS-T (0.1% Tween 20) and blocked (1 hr, RT) with TBS-T containing 1% BSA. Serum was initially diluted between 20-10,000-fold and diluted in 2-3 fold serial dilutions eight times on the ELISA plate. Plates were incubated (1 hr, 37° C.) with serum (50 μL/well), washed four times, and incubated (1 hr, 37° C.) with the appropriate HRP-conjugated secondary antibodies (1:2000, Santa Cruz Biotechnologies). Following five washes, plates were developed (RT, 15 min) in 75 μL/well of TMB substrate (Thermo Fisher) and quenched with 75 μL/well of 2N H2SO4. Absorbance was measured at 450 nm and the endpoint titer was calculated as the dilution of serum that produced an absorbance 2-fold above background.
All liposomes were composed of a 60:35:5 molar ratio of distearoyl phosphatidylcholine (DSPC; Avanti Polar Lipids), cholesterol (Sigma), and pegylated lipids. The total mol % of pegylated lipids was always kept at 5%; made up of the appropriate combination of polyethyleneglycol(PEG2000)-distearoyl phosphoethanolamine (PEG-DSPE; Avanti Polar Lipids), ^BPANeuGc-PEG2000-DSPE, ^BPCNeuAc-PEG2000-DSPE, NP-PEG2000-DSPE or Protein-PEG2000-DSPE. […] The diameter of the liposomes were measured on a zetasizer (Malvern) and were consistently in the range of 100-130±30 nm. […]

[2] = molecular target: T1, Siglec-G (Mus musculus, UniProt Q80ZE3); conditions: cited from earlier work
T1 sequence (Q80ZE3 18-688): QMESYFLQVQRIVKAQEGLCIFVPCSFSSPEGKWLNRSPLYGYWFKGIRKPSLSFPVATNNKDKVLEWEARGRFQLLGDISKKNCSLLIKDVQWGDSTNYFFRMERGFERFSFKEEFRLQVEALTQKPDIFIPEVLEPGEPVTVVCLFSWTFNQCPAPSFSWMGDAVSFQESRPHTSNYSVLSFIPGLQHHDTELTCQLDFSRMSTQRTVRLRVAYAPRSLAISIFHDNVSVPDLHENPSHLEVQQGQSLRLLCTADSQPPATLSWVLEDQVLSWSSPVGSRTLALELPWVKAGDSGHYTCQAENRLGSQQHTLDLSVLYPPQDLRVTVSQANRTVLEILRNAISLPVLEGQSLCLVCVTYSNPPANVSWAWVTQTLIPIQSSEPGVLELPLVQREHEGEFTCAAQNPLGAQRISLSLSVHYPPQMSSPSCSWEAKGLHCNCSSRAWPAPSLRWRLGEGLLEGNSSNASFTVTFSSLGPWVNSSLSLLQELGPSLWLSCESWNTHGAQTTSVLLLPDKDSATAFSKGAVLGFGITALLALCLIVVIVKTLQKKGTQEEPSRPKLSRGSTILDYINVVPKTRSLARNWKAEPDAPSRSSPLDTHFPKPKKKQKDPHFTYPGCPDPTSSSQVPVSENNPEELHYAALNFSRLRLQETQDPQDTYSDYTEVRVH

[3] = molecular target: T2, murine CD22 (Mus musculus, UniProt P35329); conditions: higher affinity than natural ligand; cited from earlier work
T2 sequence (P35329 22-868): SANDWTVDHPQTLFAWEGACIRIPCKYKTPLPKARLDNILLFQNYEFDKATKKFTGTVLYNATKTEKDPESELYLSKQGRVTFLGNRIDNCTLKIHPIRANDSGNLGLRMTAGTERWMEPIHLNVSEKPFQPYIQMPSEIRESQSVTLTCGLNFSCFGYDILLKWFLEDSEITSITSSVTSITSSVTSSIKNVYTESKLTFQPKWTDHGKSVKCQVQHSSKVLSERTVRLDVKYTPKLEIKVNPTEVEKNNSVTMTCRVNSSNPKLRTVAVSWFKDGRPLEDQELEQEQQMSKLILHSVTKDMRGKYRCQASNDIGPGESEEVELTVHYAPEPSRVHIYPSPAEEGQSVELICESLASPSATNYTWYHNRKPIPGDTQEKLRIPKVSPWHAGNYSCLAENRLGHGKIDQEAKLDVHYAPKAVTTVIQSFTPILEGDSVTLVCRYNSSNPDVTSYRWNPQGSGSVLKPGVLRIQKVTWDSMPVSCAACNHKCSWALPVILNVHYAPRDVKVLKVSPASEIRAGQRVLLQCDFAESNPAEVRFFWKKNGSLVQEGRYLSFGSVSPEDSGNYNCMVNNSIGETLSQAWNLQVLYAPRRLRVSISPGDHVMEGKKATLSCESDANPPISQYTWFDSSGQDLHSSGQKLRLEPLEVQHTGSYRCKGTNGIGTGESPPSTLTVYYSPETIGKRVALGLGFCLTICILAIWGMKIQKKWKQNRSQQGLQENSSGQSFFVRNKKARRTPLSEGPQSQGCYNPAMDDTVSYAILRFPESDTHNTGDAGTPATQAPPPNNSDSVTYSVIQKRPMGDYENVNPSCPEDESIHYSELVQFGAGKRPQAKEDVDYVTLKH

Compound	antibody suppression with varying amounts of ligand on HEL STALs [1]	cross-reactivity with Siglec-G [2]	affinity for murine CD22 relative to its natural ligand (NeuGcα2-6Galβ1-4GlcNAc) [3]	difference in EC50 between the two ligands (^BPANeuGc vs NeuGc) on HEL STALs ([1]; antibody suppression titration, FIG. 1E)
CC(=O)NC1C(O)OC(CO)C(OC2OC(COC3(C(=O)O)CC(O)C(NC(=O)CO)C(C(O)C(O)CO)O3)C(O)C(O)C2O)C1O (centres unmarked) [NeuGc, NeuGcα2-6Galβ1-4GlcNAc]	dose-dependent effect on antibody suppression	–	–	–
9-N-biphenylacetyl-NeuGcα2-6Galβ1-4GlcNAc [^BPANeuGc]	dose-dependent effect on antibody suppression	only a small degree of cross-reactivity	200 fold	two orders of magnitude difference

— patent US20160060324A1, “Methods and Compositions for Treating Bleeding Disorders” (THE SCRIPPS RESEARCH INSTITUTE, priority 2013, published 2016)
